This experiment has as its system P. falciparum 3D7 growth, pLDH absorbance. Kind of experiment: P. falciparum 3D7 growth inhibition, dose response, strain 3D7 (AID 2305).

The term IC50 denotes the midpoint of a concentration-inhibition curve. A low value points to higher potency.

Consider `CCN(CC)S(=O)(=O)c1ccc(Cl)c(C(=O)Nc2ccc3nc(C)sc3c2)c1`, for which the IC50 stood at 0.8 µM. `COc1ccc(-c2ccc(NC(=O)c3cccc(Cl)c3)c(F)c2)cc1CN1CCCN(C)CC1` had an IC50 of 0.68 µM. Regarding `NC(=NCCCc1ccccc1)c1cccc(C(N)=NCCCc2ccccc2)n1`, the IC50 was found to be 1.38 µM. Regarding `O=C([C@H]1C[C@@H]1c1ccccc1)N(Cc1ccc(-c2ccc(CNCCc3ccccc3)cc2)cc1)C1CCNCC1`, the IC50 came out at 1.11 µM. Consider `O=C(Nc1ccc(-c2nc3ccccc3[nH]2)cc1)C1CCCN(C2CCC2)C1` (stereo not given), for which the IC50 came out at 1.35 µM.

Regarding `CCCCN(CCCC)Cc1cc(Nc2ccnc3cc(Cl)ccc23)ccc1O`, the IC50 stood at 0.02 µM. As for `O=C(/C=C/c1ccc(Cl)c(Cl)c1)N1CCC(CN2CCC(c3c[nH]c4ccncc34)CC2)CC1`, the IC50 turned out to be 0.73 µM.

For `O=C(Nc1ccc(N2CCCN(Cc3cccc(F)c3)CC2)cc1)c1cccs1`, the IC50 turned out to be 0.55 µM.

For the compound `CCN(C(=O)c1ccc(NC(=O)c2cccs2)cc1)c1nc2c(C)cccc2s1`, the IC50 came out at 0.85 µM. Under `CN1CCN(c2ccc3nc(-c4ccc(Cc5cc(Cl)ccc5OCc5ccccc5)o4)[nH]c3c2)CC1` stands 0.81 µM; under `O=C(CCc1cnc[nH]1)Nc1cccc(-c2ccc(-c3nc4ccc(F)cc4[nH]3)s2)c1`, 0.56 µM. In turn, `CCCn1c(SCC(=O)Nc2cc(C(F)(F)F)ccc2Cl)n[nH]c1=O` showed an IC50 of 0.22 µM.

As for `Cc1cccc2[nH]c(-c3ccc(-c4cccc(CN5CCN(CC6CCCN(C)C6)CC5)c4)s3)nc12` (stereo not given), the IC50 stood at 0.12 µM. For `COc1ccc(-c2ccc(CNC3Cc4ccccc4C3)cc2)cc1S(=O)(=O)NCCN1CCCC1`, the half-inhibitory concentration (IC50) was 0.8 µM. Consider `COc1cccc(-c2ccc3c(-c4cccc(NC(C)=O)c4)cnc(N)c3c2)c1`, for which the IC50 stood at 0.11 µM. The compound `c1cncc(-c2cc(N3CCc4ccccc4C3)nc(-c3ccncc3)n2)c1` gave an IC50 of 0.04 µM. Turning to `COc1ccccc1Cc1c(C)nc2nc(N)nc(N)c2c1C`, the IC50 came out at 0.57 µM. Compound `CN(C)CCC1CCCc2ccc(NC(=O)Nc3cccc(Cl)c3Cl)cc21` (stereo not given) returned an IC50 of 0.96 µM.

With `c1ccc(Oc2ccc(Nc3ccnc4cc(-c5cccc(CNCCN6CCOCC6)c5)ccc34)cc2)cc1`, the IC50 is 0.39 µM.

Turning to `O=C(/C=C/c1ccc(Br)cc1)NCCCCCN1CCC(c2c[nH]c3ccccc23)CC1`, the IC50 amounted to 0.72 µM.

For the compound `Cc1cnc2cc3c(cc2c1N1CCN(C)CC1)NCC3`, the IC50 amounted to 0.78 µM. `Cc1cc(F)ccc1C1CCN(CCCCNC(=O)c2ccc(NC(=O)c3ccc(Cl)cc3)cc2)CC1` showed a 50% inhibitory concentration (IC50) of 0.69 µM. As for `CCOc1ccc(C(C)NC(=O)Cc2ccccc2F)cc1OCC` (stereo not given), the IC50 worked out at 0.84 µM.

With `COc1ccc(CNCCCCCNCc2ccc(Cl)c(Cl)c2)cc1Cl`, the 50% inhibitory concentration (IC50) was determined as 0.75 µM. For `CC(=O)c1ccc(-c2ccccc2)s1`, the IC50 was 1.08 µM.

In turn, `Cc1ccc(/C=C/C(=O)NC2CCC(N3CCC(c4ccccc4C)CC3)CC2)cc1C` (stereo not given) registered an IC50 of 0.81 µM. As to `COC(=O)c1ccc2nc(-c3ccc(/C=C/C(=O)NC4CCN(Cc5ccccc5)CC4)cc3)[nH]c2c1`, the half-inhibitory concentration (IC50) was determined as 0.71 µM.

The compound `O=[N+]([O-])c1ccc(Oc2c(Cl)cc(S(=O)(=O)N3CCC(CN4CCC(c5c[nH]c6ccccc56)CC4)CC3)cc2Cl)c(Cl)c1` came in with an IC50 of 1 µM. In turn, `O=C(NCCN1CCCc2ccccc21)C1CCN(c2nc(-c3ccc(Cl)cc3)no2)CC1` yielded a half-maximal inhibitory concentration (IC50) of 0.69 µM. Consider `O=C(N[C@H](Cc1ccc(Cl)cc1)C(=O)N1CCN(c2ccnc3cc(Cl)ccc23)CC1)[C@H]1Cc2ccccc2CN1`, for which the IC50 was 0.42 µM. In turn, `Cc1cccc2[nH]c(-c3ccc(-c4cccc(CNCCN(C)C)c4)cc3)nc12` had an IC50 of 0.68 µM. `CN1CCN(c2ccnc3ccc(NC(=O)Nc4ccc(Cl)cc4)cc23)CC1` came in with an IC50 of 0.11 µM. For `Cc1cc(NN=Cc2ccc(F)cc2)c2cc(F)ccc2n1`, the IC50 came to 0.64 µM.

On to `COc1ccc(C(=O)CC(=O)c2ccc(OC)cc2OC)c(OC)c1`, for which the IC50 is 0.3 µM. As for `O=C(Nc1cccc(F)c1)N1CCC(CN2CCOC(c3ccccc3)(c3ccccc3)C2)CC1`, the IC50 is 0.2 µM.

Compound `Cc1nn(-c2ccccc2)nc1C(=O)NC1CCN(CCNC(=O)c2ccc(Cl)c(Cl)c2)CC1` registered an IC50 of 0.87 µM. `COCCN1CCC(N(CC2(O)CCN(c3ccc(C(F)(F)F)cc3)CC2)C(=O)Cn2c(SCc3cccc(F)c3F)cc(=O)c3ccccc32)CC1` yielded an IC50 of 0.81 µM.

On to `COc1ccc(Cl)cc1NC(=O)Nc1ccnc2ccccc12`, for which the IC50 amounted to 0.68 µM.

Take `O=C(/C=C/c1ccc(Cl)c(Cl)c1)NCCCCCN1CCC(CCNC(=O)c2snnc2-c2ccccc2)CC1`: the IC50 stood at 0.82 µM. Turning to `COc1ccc(NC(=O)c2cccc(Br)c2)cc1N1CCN(CCCCCCCN2CCN(c3cc(NC(=O)c4cccc(Br)c4)ccc3OC)CC2)CC1`, the IC50 turned out to be 0.18 µM. Under `O=C(Cc1ccc(Nc2nccc(Nc3cccc4[nH]ncc34)n2)cc1)Nc1ccc(C(F)(F)F)cc1` stands 0.89 µM; under `O=C(/C=C/c1ccc([N+](=O)[O-])cc1)N1CCC(NS(=O)(=O)c2ccc(Br)cc2)CC1`, 1.05 µM; under `Cc1ccc(N2C(N)=NC(N)=NC2c2ccccc2)cc1` (stereo not given), 0.06 µM. For `Nc1ccc(-c2nc3c(ccc4ccccc43)[nH]2)cc1`, the IC50 came to 0.94 µM. Under `O=C(NCC1CCN(Cc2cccc(C(F)(F)F)c2)C1)c1cc(-c2cccc(C(F)(F)F)c2)cs1` (stereo not given) stands 0.61 µM. Take `COc1cc(F)c2ncc(Cl)c(CCN3CCC(NCc4ccc5c(n4)NC(=O)CS5)CC3)c2c1`: the half-maximal inhibitory concentration (IC50) turned out to be 0.48 µM.

Turning to `O=C(/C=C/c1ccc(Cl)cc1)NCCCCCN1CCCC(C(=O)Nc2ccc(Cl)cc2)C1` (stereo not given), the half-inhibitory concentration (IC50) was found to be 1.05 µM. The compound `CCN(CC)CCN(Cc1ccc(-c2ccc(C(F)(F)F)cc2)cc1)C(=O)Cn1c(SCc2ccc(F)cc2)nc(=O)c2ccccc21` registered an IC50 of 0.77 µM. Compound `Cc1cc2nc(/N=C(\N)NC(=O)NC3CCCCC3)nc(C)c2cc1C` registered an IC50 of 0.75 µM. The value for `CCN(CC)CCN(Cc1ccc(-c2ccc(C(F)(F)F)cc2)cc1)C(=O)Cn1cc(CCCc2cccc(F)c2F)c(=O)c2ccccc21` was 1.06 µM; that for `Cc1ccc(C)c(-n2c(SCC(=O)Nc3ccc(C(N)=O)cc3)nnc2-c2cccc(Cl)c2)c1` was 0.84 µM.

For `Cc1cccc2[nH]c(-c3cccc(-c4ccc(CN5CCC(C(N)=O)CC5)cc4)c3)nc12`, the IC50 was determined as 0.85 µM. The value for `COc1ccc2nc(C)cc(NN=Cc3cccc([N+](=O)[O-])c3)c2c1` was 0.73 µM; that for `CN(C)CC1CCCN1Cc1ccccc1-c1cnn(C)c(=O)c1Oc1ccccc1F` (stereo not given) was 1.31 µM; that for `Cc1cc(NCCCOc2ccc(Cl)cc2)nc(NCc2ccccc2)n1` was 0.78 µM. The compound `COc1cccc(C2=CC(C)(C)Oc3cc(OCCN(C)C)ccc32)c1` had an IC50 of 0.79 µM.

Compound `CN1CCN(CCc2ccc3nc(-c4csc(Cc5cc(Cl)ccc5OCc5ccccc5)n4)[nH]c3c2)CC1` displayed an IC50 of 0.75 µM.

In the case of `Cc1cccc2[nH]c(-c3ccc(-c4cccc(CN5CCC(C(N)=O)CC5)c4)s3)nc12`, the IC50 amounted to 1.26 µM. Regarding `COc1cc2nc(NCCc3ccccc3)nc(N(C)Cc3ccccc3)c2cc1OC`, the concentration for half-maximal inhibition (IC50) came to 0.83 µM.

On to `COc1ccc(NS(=O)(=O)c2ccccc2Br)cc1N1CCN(C)CC1`, for which the IC50 worked out at 0.97 µM.

Turning to `CCCCCCCN1CC[C@H](CC(=O)Nc2ccnc3ccc(OC)cc23)[C@@H](CC)C1`, the IC50 amounted to 0.59 µM. With `Cc1cccc2[nH]c(-c3cccc(-c4ccc(NC(=O)NC(C)C)cc4)c3)nc12`, the IC50 was determined as 0.75 µM.

In the case of `O=C(/C=C/c1ccc(Cl)c(Cl)c1)NCCCCCN1CCC(NC(=S)Nc2ccc(Cl)cc2)CC1`, the IC50 worked out at 0.44 µM. Compound `CC(C)COc1ccc(Cl)cc1Cc1ccc(-c2nc3c(cnc4ccccc43)[nH]2)o1` had an IC50 of 1.26 µM. For `CCCc1cc(Cc2cnc(N)nc2N)ccc1OCCCCCC(=O)OCC`, the IC50 was 0.5 µM. The compound `O=C(Nc1cccc(Cl)c1Cl)N[C@H]1CCN(CCCCCNC(=O)[C@@H]2C[C@H]2c2ccc(Cl)c(Cl)c2)C1` yielded an IC50 of 1.28 µM.

Compound `CC(=O)NCCNc1nccc(N2CCc3ncnc(Nc4ccc(OCc5ccccn5)c(Cl)c4)c3C2)n1` came in with a half-maximal inhibitory concentration (IC50) of 0.82 µM.

For `O=c1cc(NCCCCNCc2cccc(Br)c2)[nH]c2ccccc12`, the IC50 amounted to 0.73 µM.

`O=C(Nc1ccc(C(=O)N2CCN(CCN3CCN(c4cccc(C(F)(F)F)c4)CC3)CC2)cc1)c1cc(Cl)cc(Cl)c1`: the IC50 was determined as 0.83 µM. For `Cc1cc(NCc2ccc(F)cc2)nc2cc(O)ccc12`, the IC50 turned out to be 0.76 µM.

As for `O=C1Nc2cccc3c2C1(CCCCCN1CC=C(c2c[nH]c4ccccc24)CC1)CCC3` (stereo not given), the IC50 worked out at 0.74 µM. `O=C(Nc1ccc(Cl)c(C(F)(F)F)c1)Nc1ccc(Cl)c(C(F)(F)F)c1` yielded an IC50 of 0.77 µM. Under `Cc1ccc2nc(C)cc(NN=Cc3cccc([N+](=O)[O-])c3)c2c1` stands 0.88 µM; under `CC(C)Oc1ccc(N2CCN(CCCCNC(=O)c3ccc(NC(=O)c4ccc(Cl)cc4)cc3)CC2)c(OC(C)C)c1`, 0.51 µM.

In the case of `CN(C)CC(O)C(O)(c1ccccc1)c1ccc(F)cc1` (stereo not given), the IC50 was determined as 1.15 µM. For the compound `CCOC(=O)c1ccc(NC(=O)Nc2ccc(-c3ccc(-c4nc5ccc(C(F)(F)F)cc5[nH]4)cc3)cc2)cc1`, the IC50 is 0.27 µM. The value for `CN1CCC(Oc2ccc(Nc3nccc(NCC(O)c4ccccc4)n3)cc2Cl)CC1` (stereo not given) was 0.79 µM; that for `Cc1cc(NCCC(=O)Nc2ccccc2)nc(NCCc2cccs2)n1` was 0.89 µM. Turning to `O=C(Nc1ccc2nc(-c3ccc4nc(NC(=O)C5CCCCC5)sc4c3)[nH]c2c1)C1CCCCC1`, the half-inhibitory concentration (IC50) was 0.61 µM. Take `CC(C)NCc1ccc(-c2cccc(CN3CCC(c4ccccc4)CC3)c2)c(C(=O)NCC2CCCCC2)c1`: the concentration for half-maximal inhibition (IC50) is 0.85 µM.

`CS(=O)(=O)c1ccc(CNCc2ccc(-c3ccc(-c4nc5ccc(C(F)(F)F)cc5[nH]4)s3)cc2)cc1` displayed an IC50 of 0.16 µM. Under `CC1CN(Cc2cccc(C#N)c2)CCN1c1ccc(NC(=O)c2cccs2)cc1` (stereo not given) stands 0.68 µM.

As for `O=C(Nc1ccc(Cl)c(C(F)(F)F)c1)c1ccc(C(=O)Nc2ccc(Cl)c(C(F)(F)F)c2)cc1`, the IC50 was found to be 1 µM.

`COc1ccc2[nH]c(C(=O)Nc3ccc4nc(-c5ccccc5)[nH]c4c3)cc2c1` yielded a half-maximal inhibitory concentration (IC50) of 0.83 µM. As for `CCN1CCC(N(Cc2ccc(-c3ccc(C(F)(F)F)cc3)cc2)C(=O)Cn2c(CCc3cccc(F)c3F)cc(=O)c3ccccc32)CC1`, the IC50 is 0.83 µM.
